SMILES strings stand for the structures.

For the experiment, the target named is T1, SARS-CoV-2 Mpro (3CL protease) (Severe acute respiratory syndrome coronavirus 2, UniProt P0DTD1).
T1 construct: gene rep
Nature of the experiment: fluorogenic substrate 3CL protease assay kit. It counts as biochemical. The note with it: read-out: IC50 (μg ml^-1) (converted). The source says:
fluorogenic substrate 3CL protease assay kit on SARS-CoV-2 Mpro (3CL protease)
On to `Cc1cccc(C)c1OCC(=O)N[C@@H](Cc1ccccc1)[C@@H](O)C[C@H](Cc1ccccc1)NC(=O)[C@H](C(C)C)N1CCCNC1=O` [Lopinavir], for which the IC50 was 117 µM.

As to `CC(C)NCC(O)COc1ccc(COCCOC(C)C)cc1` (stereo not shown) [compound 8, Bisoprolol], the half-inhibitory concentration (IC50) is 364 µM.

Turning to `OC(CNCC(O)C1CCc2cc(F)ccc2O1)C1CCc2cc(F)ccc2O1` (stereo not shown) [compound 20, Nebivolol], the IC50 is 148 µM.

As to `COc1ccccc1OCCNCC(O)COc1cccc2[nH]c3ccccc3c12` (stereo not shown) [compound 17, Carvedilol], the IC50 was 503 µM.

These data come from article PMC9043270, “β-Blockers bearing hydroxyethylamine and hydroxyethylene as potential SARS-CoV-2 Mpro inhibitors: rational based design, in silico, in vitro, and SAR studies for lead optimization” (RSC Advances, 2021).
